Test results taken from PMC8253220, “Molecular design, synthesis and in vitro biological evaluation of thienopyrimidine–hydroxamic acids as chimeric kinase HDAC inhibitors: a challenging approach to combat cancer” (Journal of Enzyme Inhibition and Medicinal Chemistry, 2021).
Values joined by “and” are separate entries in the source; they are usually repeats but may differ in a detail not shown here. Equal entries are not always repeated.

Legend:
VEGFR-2 = VEGFR-2 (Homo sapiens, UniProt P35968); experiment: In vitro VEGFR-2 tyrosine kinase inhibitory assay (Z'-LYTE, SelectScreen); type: biochemical
Procedure, shortened: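 Z'-LYTE fluorescence coupled-enzyme format, read-out based on differential protease cleavage of phosphorylated vs non-phosphorylated peptide. Compounds screened at 10 µM single dose for % inhibition, then selected ones tested at 0.1 nM–10 µM for IC50 by curve fitting.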

786-0 = experiment: NCI one-dose screen; type: cell-based, human; details: Renal 786-0, 10 µM single dose
Procedure, shortened: (§1)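 One concentration (10 μM) applied to each line of the full NCI-60 panel; percent growth compared against untreated cells.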

COLO 205 = experiment: NCI one-dose screen; type: cell-based, human; details: Colon COLO 205, 10 µM single dose
Procedure, shortened: as §1

SR = experiment: NCI one-dose screen; type: cell-based, human; details: Leukemia SR, 10 µM single dose
Procedure, shortened: as §1

SNB-75 = experiment: NCI one-dose screen; type: cell-based, human; details: for Growth Percent: CNS SNB-75, 10 µM single dose
Procedure, shortened: (§2)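 Each cell line received compound at 10 μM as part of the NCI one-dose protocol. Values reflect growth inhibition percent calculated from growth relative to untreated controls.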

NCI-H23 = experiment: NCI one-dose screen; type: cell-based, human; details: NSCLC NCI-H23, 10 µM single dose
Procedure, shortened: (§3)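 At 10 μM, a single concentration, compounds were evaluated for antiproliferative effect in the NCI 60-line screen, with growth expressed relative to untreated control cells.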

M14 = experiment: NCI one-dose screen; type: cell-based, human; details: Melanoma M14, 10 µM single dose
Procedure, shortened: as §1

HCT-116 = experiment: NCI one-dose screen; type: cell-based, human; details: Colon HCT-116, 10 µM single dose
Procedure, shortened: as §1

NCI/ADR-RES = experiment: NCI one-dose screen; type: cell-based, human; details: Ovarian NCI/ADR-RES, 10 µM single dose
Procedure, shortened: as §1

NCI-H522 = experiment: NCI one-dose screen; type: cell-based, human; details: NSCLC NCI-H522, 10 µM single dose
Procedure, shortened: as §2

SW-620 = experiment: NCI one-dose screen; type: cell-based, human; details: Colon SW-620, 10 µM single dose
Procedure, shortened: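 Compounds were tested at a single dose of 10 μM across the full NCI-60 cell line panel. Growth was expressed as percent growth relative to untreated control cells, reported as percent inhibition.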

SF-268 = experiment: NCI one-dose screen; type: cell-based, human; details: CNS SF-268, 10 µM single dose
Procedure, shortened: as §3

NCI-H226 = experiment: NCI one-dose screen; type: cell-based, human; details: NSCLC NCI-H226, 10 µM single dose
Procedure, shortened: as §2

CCRF-CEM = experiment: NCI one-dose screen; type: cell-based, human; details: Leukemia CCRF-CEM, 10 µM single dose
Procedure, shortened: as §1

LOX IMVI = experiment: NCI one-dose screen; type: cell-based, human; details: Melanoma LOX IMVI, 10 µM single dose
Procedure, shortened: as §1

MOLT-4 = experiment: NCI one-dose screen; type: cell-based, human; details: Leukemia MOLT-4, 10 µM single dose
Procedure, shortened: as §3

IGROV1 = experiment: NCI one-dose screen; type: cell-based, human; details: Ovarian IGROV1, 10 µM single dose
Procedure, shortened: as §1

ACHN = experiment: NCI one-dose screen; type: cell-based, human; details: Renal ACHN, 10 µM single dose
Procedure, shortened: as §1

MALME-3M = experiment: NCI one-dose screen; type: cell-based, human; details: Melanoma MALME-3M, 10 µM single dose
Procedure, shortened: as §1

UACC-62 = experiment: NCI one-dose screen; type: cell-based, human; details: Melanoma UACC-62, 10 µM single dose
Procedure, shortened: as §1

SNB-19 = experiment: NCI one-dose screen; type: cell-based, human; details: CNS SNB-19, 10 µM single dose
Procedure, shortened: (§4)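 Following the standard NCI-60 protocol, compounds were applied once at 10 μM to all 60 cancer lines. Read-out is percent growth versus untreated controls, expressed as inhibition %.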

T-47D = experiment: NCI one-dose screen; type: cell-based, human; details: Breast T-47D, 10 µM single dose
Procedure, shortened: as §1

SK-MEL-2 = experiment: NCI one-dose screen; type: cell-based, human; details: Melanoma SK-MEL-2, 10 µM single dose
Procedure, shortened: as §4

K-562 = experiment: NCI one-dose screen; type: cell-based, human; details: Leukemia K-562, 10 µM single dose
Procedure, shortened: as §1

HT29 = experiment: NCI one-dose screen; type: cell-based, human; details: Colon HT29, 10 µM single dose
Procedure, shortened: as §1

Sequence of VEGFR-2 (P35968 20-1356): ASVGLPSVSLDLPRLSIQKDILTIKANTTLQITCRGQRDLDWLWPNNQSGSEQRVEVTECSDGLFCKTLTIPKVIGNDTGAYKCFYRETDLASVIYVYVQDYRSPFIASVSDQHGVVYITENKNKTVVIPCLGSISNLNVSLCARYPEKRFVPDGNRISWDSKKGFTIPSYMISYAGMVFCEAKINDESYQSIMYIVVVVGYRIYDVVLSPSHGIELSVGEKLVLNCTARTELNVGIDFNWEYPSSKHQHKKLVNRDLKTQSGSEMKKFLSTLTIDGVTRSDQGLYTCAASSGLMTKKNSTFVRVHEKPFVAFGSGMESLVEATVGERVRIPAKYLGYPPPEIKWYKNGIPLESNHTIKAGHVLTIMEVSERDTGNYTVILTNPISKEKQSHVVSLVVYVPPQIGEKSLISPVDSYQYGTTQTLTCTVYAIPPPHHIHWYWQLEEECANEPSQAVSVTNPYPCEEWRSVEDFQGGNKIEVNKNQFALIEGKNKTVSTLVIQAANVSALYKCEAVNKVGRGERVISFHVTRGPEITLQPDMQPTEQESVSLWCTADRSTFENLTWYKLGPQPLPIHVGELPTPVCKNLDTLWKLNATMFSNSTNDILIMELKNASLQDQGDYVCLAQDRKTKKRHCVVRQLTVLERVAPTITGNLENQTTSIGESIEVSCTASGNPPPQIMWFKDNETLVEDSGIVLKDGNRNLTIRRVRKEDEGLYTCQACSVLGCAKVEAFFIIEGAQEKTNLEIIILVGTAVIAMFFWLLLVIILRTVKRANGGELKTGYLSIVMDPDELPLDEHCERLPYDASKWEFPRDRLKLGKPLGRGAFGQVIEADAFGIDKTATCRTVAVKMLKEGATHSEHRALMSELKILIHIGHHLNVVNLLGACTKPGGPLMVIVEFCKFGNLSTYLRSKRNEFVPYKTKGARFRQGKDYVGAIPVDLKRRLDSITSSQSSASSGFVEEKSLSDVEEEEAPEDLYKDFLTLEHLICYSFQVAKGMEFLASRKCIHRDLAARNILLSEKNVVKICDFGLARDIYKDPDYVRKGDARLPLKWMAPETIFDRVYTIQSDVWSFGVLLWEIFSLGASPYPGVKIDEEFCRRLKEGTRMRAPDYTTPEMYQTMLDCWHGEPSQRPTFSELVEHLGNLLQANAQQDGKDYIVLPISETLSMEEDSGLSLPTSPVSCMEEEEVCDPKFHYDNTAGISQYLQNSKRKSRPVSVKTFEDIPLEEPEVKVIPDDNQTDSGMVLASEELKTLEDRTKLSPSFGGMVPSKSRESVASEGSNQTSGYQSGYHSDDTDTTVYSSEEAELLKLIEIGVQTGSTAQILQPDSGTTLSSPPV

| Structure (SMILES) | inhibition at 10 µM (VEGFR-2; 10 µM single dose) [%] | Growth Percent (786-0) | Growth Percent (COLO 205) | Growth Percent (SR) | Growth Percent (SNB-75) | Growth Percent (NCI-H23) | Growth Percent (M14) | Growth Percent (HCT-116) | Growth Percent (NCI/ADR-RES) | Growth Percent (NCI-H522) | Growth Percent (SW-620) | Growth Percent (SF-268) | Growth Percent (NCI-H226) | Growth Percent (CCRF-CEM) | Growth Percent (LOX IMVI) | Growth Percent (MOLT-4) | Growth Percent (IGROV1) | Growth Percent (ACHN) | Growth Percent (MALME-3M) | Growth Percent (UACC-62) | other results |
| --- | --- | --- | --- | --- | --- | --- | --- | --- | --- | --- | --- | --- | --- | --- | --- | --- | --- | --- | --- | --- | --- |
| Cc1c(C(=O)NCCCC(=O)NO)sc2ncnc(Nc3ccc(NC(=O)Nc4ccccc4)cc3)c12 [Compound 12a, 1–(4-(6-((4-(hydroxyamino)-4-oxobutyl)carbamoyl)-5-methylthieno[2,3-d]pyrimidin-4-ylamino)phenyl)-3-phenylurea] | 48 | 102.3% and 102.37% | 111.9% and 111.95% | 105.3% and 105.35% | 78.1% and 78.17% | 89.2% and 89.25% | 99.0% and 99.09% | 99.5% | 103.7% and 103.79% | 87.7% and 87.71% | 103.3% and 103.39% | 92.5% and 92.51% | 93.3% and 93.35% | 107.0% and 107.09% | 93.57% | 102.6% and 102.68% | 99.0% and 99.07% | 95.4% and 95.45% | 104.5% and 104.57% | 99.1% and 99.19% | Growth Percent (SNB-19): 97.1% and 97.12%; Growth Percent (T-47D): 103.9% and 103.98%; Growth Percent (SK-MEL-2): 113.3% and 113.39%; Growth Percent (K-562): 97.8% and 97.83%; Growth Percent (HT29): 104.7% and 104.74% |
| COc1cccc(NC(=O)Nc2ccc(Nc3ncnc4sc(C(=O)NCCCC(=O)NO)c(C)c34)cc2)c1 [Compound 12b, 1–(4-(6-((4-(hydroxyamino)-4-oxobutyl)carbamoyl)-5-methylthieno[2,3-d]pyrimidin-4-ylamino)phenyl)-3–(3-methoxyphenyl)urea] | 83 | 105.9% | 111.3% and 111.31% | 108.2% and 108.25% | 90.6% and 90.62% | 97.5% and 97.53% | 104.0% and 104.04% | 99.2% and 99.29% | 101.6% and 101.63% | 81.7% and 81.76% | 101.5% and 101.51% | 95.1% | 96.6% and 96.68% | 103.5% and 103.52% | 90.7% and 90.77% | 104.7% and 104.76% | 97.0% and 97.08% | 98.6% and 98.68% | 95.2% and 95.25% | 95.3% and 95.39% | Growth Percent (SNB-19): 97.9%; Growth Percent (T-47D): 97.6% and 97.69%; Growth Percent (SK-MEL-2): 94.6% and 94.66%; Growth Percent (K-562): 101.6% and 101.69%; Growth Percent (HT29): 95.3% |
| Cc1c(C(=O)NCCCC(=O)NO)sc2ncnc(Nc3ccc(NC(=O)Nc4cccc(C(F)(F)F)c4)cc3)c12 [Compound 12c, 1–(4-(6-((4-(hydroxyamino)-4-oxobutyl)carbamoyl)-5-methylthieno[2,3-d]pyrimidin-4-ylamino)phenyl)-3–(3-(trifluoromethyl)phenyl)urea] | 103 | 106.6% and 106.68% | 114.9% and 114.97% | 103.3% and 103.37% | 70.7% and 70.76% | 104.6% and 104.64% | 107.2% and 107.23% | 107.2% and 107.24% | 99.2% and 99.22% | 94.1% and 94.19% | 109.4% and 109.44% | 98.7% and 98.75% | 105.6% and 105.63% | 107.8% and 107.81% | 98.1% and 98.14% | 102.4% and 102.48% | 116.7% and 116.77% | 105.9% and 105.92% | 116.7% and 116.65% | 98.5% and 98.59% | inhibition at 0.0001 µM (VEGFR-2; 0.1 nM compound, 10 μM ATP, read-out: % Inhibition mean, KDR (VEGFR2)): 5%; inhibition at 0.001 µM (VEGFR-2; 1 nM compound, 10 μM ATP, read-out: % Inhibition mean, KDR (VEGFR2)): 10%; inhibition at 0.01 µM (VEGFR-2; 10 nM compound, 10 μM ATP, read-out: % Inhibition mean, KDR (VEGFR2)): 5%; inhibition at 0.1 µM (VEGFR-2; 100 nM compound, 10 μM ATP, read-out: % Inhibition mean, KDR (VEGFR2)): 36%; inhibition at 1 µM (VEGFR-2; 1000 nM compound, 10 μM ATP, read-out: % Inhibition mean, KDR (VEGFR2)): 90%; Mean % inhibition VEGFR-2 (VEGFR-2; 10 µM single dose): 100%; IC50 (VEGFR-2; read-out: IC50 in enzyme assays VEGFR-2): 185 nM; inhibition at 10 µM (SNB-75; Homo sapiens, CNS SNB-75, 10 μM): 29.2%; Growth Percent (SNB-19): 96.8% and 96.88%; Growth Percent (T-47D): 109.7% and 109.79%; Growth Percent (SK-MEL-2): 107.8% and 107.86%; Growth Percent (K-562): 103.8% and 103.86%; Growth Percent (HT29): 104.0% and 104.09% |
| Cc1c(C(=O)NO)sc2ncnc(Nc3cccc4[nH]cnc34)c12 [Compound 15a, 4-(1H-benzo[d]imidazol-4-ylamino)-N-hydroxy-5-methylthieno[2,3-d]pyrimidine-6-carboxamide] | 36 | 102.1% and 102.13% | 112.8% and 112.81% | 106% and 106.56% | 81.0% and 81.08% | 92.2% and 92.27% | 106.5% and 106.58% | 103.9% and 103.95% | 102.6% and 102.67% | 94.4% and 94.42% | 103.6% and 103.66% | 93.9% | 99.3% and 99.31% | 110.7% and 110.72% | 97.5% and 97.58% | 104% and 104.07% | 97.9% and 97.91% | 99.1% and 99.11% | 109.7% and 109.71% | 94.2% and 94.26% | Growth Percent (SNB-19): 98.9% and 98.99%; Growth Percent (T-47D): 108.3% and 108.35%; Growth Percent (SK-MEL-2): 115.8% and 115.88%; Growth Percent (K-562): 101.00%; Growth Percent (HT29): 103.9% and 103.93% |
| Cc1c(C(=O)NO)sc2ncnc(Nc3ccccc3)c12 [Compound 15b, N-hydroxy-5-methyl-4-(phenylamino)thieno[2,3-d]pyrimidine-6-carboxamide] | 32 | 98.6% and 98.65% | 115.6% and 115.62% | 78.2% | 74.2% and 74.29% | 90.5% and 90.51% | 100.4% and 100.48% | 102.9% | 96.1% and 96.17% | 86.6% and 86.62% | 89.5% and 89.53% | 91.8% and 91.83% | 89.3% and 89.32% | 98.7% and 98.78% | 96.0% and 96.03% | 103.5% | 87.7% | 95.0% and 95.07% | 101.18% | 92.5% and 92.58% | Growth Percent (SNB-19): 93.0% and 93.06%; Growth Percent (T-47D): 90.8% and 90.83%; Growth Percent (SK-MEL-2): 109.3% and 109.33%; Growth Percent (K-562): 94.9% and 94.99%; Growth Percent (HT29): 100.5% and 100.52% |
